For series [1], the system named is MDA-MB-231 cells (HER2-negative). Briefly: Anti-proliferation assay (MTT). It is filed as cell-based, human. As to the method:
(§1) Cells were grown in DMEM medium supplemented with 10% fetal bovine serum, 100 U/mL penicillin, […] streptomycin and 2 mM/L L-glutamine. Cells were maintained at 37 °C in 5% CO2.
(§2) Cells were seeded in 96-well plates at a density of 5 × 10^3 cells per well in 100 μL of medium. […] Media were then replaced with serum-free DMEM containing MTT (0.5 mg/mL), then cells were incubated for 4 h. Media were removed and 150 μL of DMSO was added to dissolve formazan crystals. Absorbance was measured at 570 nm using a microplate reader. Untreated cells were used as a negative control (100% viability). IC50 was calculated by fitting the curve of cell viability against the drug concentration.

Another series deals with MDA-MB-453 cells. In words: Annexin V-FITC/PI apoptosis assay. It is filed as cell-based, human. The conditions noted are these: 56 ng/mL, 24 h. As to the method: To evaluate apoptosis and necrosis, we used Annexin V-FITC/PI assays, as per the manufacturer’s protocols. Briefly, MDA-MB-453 cells (1 × 10^6 cells/well) were seeded in six-well plates and maintained at 37 °C in 5% CO2 and a 95% humidified atmosphere. The medium was replaced with freshly prepared medium containing drug-loaded formulations. Untreated cells were used as controls. After 24 h, cells were washed twice with PBS and resuspended in 500 μL of binding buffer. We added 5 μL of FITC-conjugated Annexin V and 10 μL of PI, and incubated cells for 15 min at room temperature in the dark. Cells were then analyzed by a Muse™ Cell Analyzer (Merck-Millipore, Germany) and the extent of apoptosis and necrosis was determined.

The conditions of series [2]: patients, p = 0.03; cited from earlier work.
In series [3] the test system is MDA-MB-453 cells (HER2-positive). Briefly: Anti-proliferation assay (MTT). The class given is cell-based. The conditions noted are these: Homo sapiens. As to the method:
as §1, §2

Molecules are shown by their SMILES.

The term cell viability denotes the share of living cells, or the viability signal relative to a control. Higher therefore signals better survival. By IC50 is commonly meant the concentration that inhibits the measured activity by half. High values mean a need for much substance, low ones inhibition by little substance. As a reminder, the viability is a read-out of living cells in per cent, often relative to untreated cells. Regarding `CC(=O)O[C@@]12CO[C@@H]1C[C@H](O)[C@@]1(C)C(=O)[C@H](O)C3=C(C)[C@@H](OC(=O)[C@H](O)[C@@H](NC(=O)OC(C)(C)C)c4ccccc4)C[C@@](O)([C@@H](OC(=O)c4ccccc4)[C@H]21)C3(C)C` [DTX, docetaxel], in series [1] (48 h, MDA-MB-231), the cell viability stood at 61.9%. This molecule also had an IC50 in series [1] (Homo sapiens, MDA-MB-231, 48 h of incubation) of more than 0.25 µg/mL. Further, in the series with MDA-MB-453 cells, the live cells was 83.1% and the “total percentage of apoptotic cells” value was found to be 16.5%. Further, the survival in series [2] is 22.7 months. In addition, the viability at 0.125 µg/mL in series [3] (125 ng/mL drug concentration, 48 h, MDA-MB-453, read-out: cell viability) amounted to 69%. The half-inhibitory concentration (IC50) in series [3] (MDA-MB-453, 48 h of incubation) was more than 0.25 µg/mL.

The values are drawn from paper PMC4823704, “Trastuzumab-grafted PAMAM dendrimers for the selective delivery of anticancer drugs to HER2-positive breast cancer” (Scientific Reports, 2016).
